Assay results reported in patent publication US20110009351A1, “SCREENING ASSAY TO IDENTIFY CORRECTORS OF PROTEIN TRAFFICKING DEFECTS” (Traffick Therepeutics Inc., priority 2007, published 2011).
Counter-ions that a name gives are not always drawn.

How the values were obtained:
F508del CFTR = molecular target: T1, F508del CFTR (Homo sapiens, UniProt P13569, DEL508-508); assay: YFP fluorescence quenching functional assay (iodide influx), HEK293 cells with F508del CFTR and halide sensitive YFP; type: cell-based; details: 10 μM, 24 h, nc = 100% pc = 69.2; for remaining activity at 10 µM: HEK293, read-out: % YFP quench
T1 construct: expressed in transfected cells; host or cells: HEK293 Griptite cells stably expressing F508del CFTR, transiently transfected with halide-sensitive eYFP
Experimental: In addition to the MDS compounds, the 1120 Prestwick Library compounds were screened. (See FIGS. 7 to 12.) Of the compounds, one qualified as a “strong” hit, 3 as “medium” hits and 57 as “weak” hits. The Z score for the assay was 0.62. The top 50 hits were further tested in a counter screen in which the halide sensitive fluorescent compound (YFP) was expressed inside cells (Table 2). After incubation with the test compounds the ability of the cells to uptake iodide was measure by decreasing YFP fluorescence. In these cells this can only occur if functional CFTR is present at the cell surface (FIG. 7). The hits were also tested for the appearance of the Band C form of CFTR. […] The functionality of the compounds was further studied by the use of Iodide efflux assays for each compound in both BHK and the more physiologically relevant CFBE cells. […] FIG. 10 is a table of results for the 15 hit compounds which summarizes many experiments. […] The results for the best 15 compounds from the Prestwick Library, or “Prestwick 15”, are shown FIGS. 8, 9 and 10.
Strongly adhesive Human […] Kidney cells stably expressing both the human macrophage scavenger receptor (HEK293 Griptite, Invitrogen) and F508del CFTR were plated in 96-well plates and transiently transfected with pcDNA3 plasmid encoding a halide sensitive variant of eYFP. After 24-48 h later cells were exposed to 10 μM test compound in triplicate and incubated for an additional 24 h. Cells were stimulated for 20 minutes with a in a buffer containing 25 μM forskolin, 45 μM IBMX and 50 μM genistein final concentration. The high content screening assay was performed using a Cellomics platform. Iodide was added robotically to a final concentration of 50 mM and the resulting decrease in fluorescence was measured. Images were taken at time 0 and stored for subsequent use when calculating a mask so that only those cells that express YFP at time 0 are measured. The quenching was detected in 15 images taken over the course of an experiment lasting 40 seconds. Each test compound was compared to the following two controls: a negative control without drugs to assess photobleaching that may occur when the same field of view is repeatedly imaged, and a positive control with cells treated with a known potentiator. Results were generated from 150-300 cells per well.

ΔF508-CFTR = ΔF508-CFTR (Homo sapiens, UniProt P13569, DEL508-508); type: cell-based; design: which was then ligated into full length pNUT-CFTR linearized using Hpa1 and Pml1; expressed in transfected cells; details: for hit in screen (class letter) / hit in screen (score): Prestwick library, initial corrector assay; for hit in screen (class letter) / ΔF508-CFTR correctors identified by highthroughput screening: hit class: BHK cells; for hit in screen (score): standard deviations above untreated controls; for signal in the trafficking assay / ΔF508-CFTR correctors identified by highthroughput screening: hit class: Microsource Discovery library, 20 μM; for signal in the trafficking assay: medium and weak hits; for ΔF508-CFTR correctors identified by highthroughput screening: hit class: 37° C.
Experimental: BHK cells expressing 3HA-tagged ΔF508-CFTR between passages 5-8 were seeded in 96-well plates (Corning half area, black-sided, clear bottom) at 15,000 cells per well and incubated with culture medium for 24 h at 37° C. Each well was then treated with a different test compound (80 compounds per plate) for 24 h at 20 μM final concentration. The remaining 16 wells on each plate were used for control conditions. […] Cells were fixed in a 4% paraformaldehyde solution, washed with PBS, and blocked with PBS containing 5% fetal bovine serum (FBS) for 1 hat 4° C.
Blocking solution was replaced with 15 μl of primary antibody solution containing 1% FBS and mouse monoclonal anti-HA antibody (1:150 dilution, Sigma) in PBS. The plates were sealed and left at 4° C. overnight. After three washes with 100 μl PBS, cells were incubated for 1 h with 15 μl of secondary antibody solution containing 1% FBS and anti-mouse IgG conjugated with FITC (1:100 dilution, Sigma) in PBS. Cells were again washed three times with 100 μl of PBS and analyzed in a plate reader (Analyst™ HT96.384, Biosystems; 488 nm excitation/510 nm emission). […] The mean fluorescence of four untreated wells was used as the background signal when calculating deviations of the 80 compound-treated wells. Hits were then cherry-picked into reservoir plates and re-tested in duplicate using the same assay.
BHK cells expressing ΔF508-CFTR were incubated with test compounds (20 μM) for 24 hours at 37° C. in a 96 well format. Plasma membrane expression of ΔF508-CFTR was then assayed by immunofluorescence using a primary antibody directed against the inserted 3HA tag and a secondary antibody conjugated with a fluorophore (FITC). […] The positive compounds were selected and retested in duplicate to obtain an N of 3. At the re-screening stage, the intrinsic fluorescence of each potential hit was also measured and the fluorescent ones were not considered further.
Screening was performed using BHK cells that stably express F508-CFTR bearing three tandem haemagglutinin-epitope tags (3HA) and linker sequences in the fourth extracellular loop after amino acid 901 (Howard et al., 1995; Carlile et al., 2007; Robert et al., 2008). […] Screening was performed using the Prestwick Chemical Library of 1120 high-purity compounds.

Sequence of ΔF508-CFTR (P13569 with tags, fused parts or gaps DEL508-508): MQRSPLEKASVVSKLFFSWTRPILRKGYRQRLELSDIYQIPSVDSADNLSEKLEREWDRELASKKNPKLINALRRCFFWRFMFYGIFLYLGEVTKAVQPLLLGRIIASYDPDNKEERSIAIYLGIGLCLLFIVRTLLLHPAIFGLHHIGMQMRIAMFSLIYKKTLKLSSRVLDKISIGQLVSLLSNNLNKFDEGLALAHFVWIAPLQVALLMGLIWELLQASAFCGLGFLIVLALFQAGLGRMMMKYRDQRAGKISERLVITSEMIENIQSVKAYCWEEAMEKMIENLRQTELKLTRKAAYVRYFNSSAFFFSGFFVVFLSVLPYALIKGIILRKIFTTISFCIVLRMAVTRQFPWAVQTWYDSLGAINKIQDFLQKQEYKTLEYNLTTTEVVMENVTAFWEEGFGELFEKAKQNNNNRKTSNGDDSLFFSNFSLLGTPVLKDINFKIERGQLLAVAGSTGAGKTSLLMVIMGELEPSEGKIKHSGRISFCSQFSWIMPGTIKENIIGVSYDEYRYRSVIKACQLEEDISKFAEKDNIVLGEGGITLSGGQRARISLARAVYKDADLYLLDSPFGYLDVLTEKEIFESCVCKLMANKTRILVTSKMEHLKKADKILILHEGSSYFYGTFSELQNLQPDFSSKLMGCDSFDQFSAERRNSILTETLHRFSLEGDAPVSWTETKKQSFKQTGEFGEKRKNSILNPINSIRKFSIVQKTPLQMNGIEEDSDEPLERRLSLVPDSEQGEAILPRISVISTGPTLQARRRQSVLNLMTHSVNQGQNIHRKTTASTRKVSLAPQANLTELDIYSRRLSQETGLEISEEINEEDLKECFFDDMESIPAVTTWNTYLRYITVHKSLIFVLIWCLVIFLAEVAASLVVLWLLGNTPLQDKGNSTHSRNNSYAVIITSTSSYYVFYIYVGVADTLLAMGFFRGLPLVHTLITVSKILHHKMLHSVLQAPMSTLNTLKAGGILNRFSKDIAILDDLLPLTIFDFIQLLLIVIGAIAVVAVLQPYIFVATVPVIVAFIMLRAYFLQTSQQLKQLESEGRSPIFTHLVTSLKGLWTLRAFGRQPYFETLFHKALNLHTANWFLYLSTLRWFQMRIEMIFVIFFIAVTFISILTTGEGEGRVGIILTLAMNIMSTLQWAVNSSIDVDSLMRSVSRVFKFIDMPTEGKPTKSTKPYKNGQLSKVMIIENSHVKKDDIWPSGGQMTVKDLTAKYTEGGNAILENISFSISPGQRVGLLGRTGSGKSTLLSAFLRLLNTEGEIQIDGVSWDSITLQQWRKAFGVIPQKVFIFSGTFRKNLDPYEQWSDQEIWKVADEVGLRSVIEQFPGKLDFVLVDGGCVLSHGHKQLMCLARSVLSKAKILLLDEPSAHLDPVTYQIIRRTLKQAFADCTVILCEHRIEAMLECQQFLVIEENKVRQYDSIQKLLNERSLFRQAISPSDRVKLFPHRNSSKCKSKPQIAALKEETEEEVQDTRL
T1 sequence (P13569 with tags, fused parts or gaps DEL508-508): as above

Compound | hit in screen (class letter) (ΔF508-CFTR) | hit in screen (score) (ΔF508-CFTR) | remaining activity at 10 µM (F508del CFTR) [%] | also measured
NC(=O)N1c2ccccc2C=Cc2ccccc21 [Carbamazenine] | W (Medium and weak hits were defined as compounds giving a cell fluorescence signal that was between 2 and 3 or 1 and 2 standard deviations, respectively, above untreated control wells) | 1.1 |  | % YFP quench (F508del CFTR): 86%
CC(=O)c1ccc(S(=O)(=O)NC(=O)NC2CCCCC2)cc1 [Acetohexamide] | W (Medium and weak hits were defined as compounds giving a cell fluorescence signal that was between 2 and 3 or 1 and 2 standard deviations, respectively, above untreated control wells) | 1.0 | 88 | 
Nc1ccc(S(=O)(=O)c2ccc(N)cc2)cc1 [Dapsone] | W (Medium and weak hits were defined as compounds giving a cell fluorescence signal that was between 2 and 3 or 1 and 2 standard deviations, respectively, above untreated control wells) | 1.1 | 88 | 
CC(C(=O)O)c1cccc(Oc2ccccc2)c1 (centres unmarked) [Fenoprofen calcium salt dihydrate] | W (Medium and weak hits were defined as compounds giving a cell fluorescence signal that was between 2 and 3 or 1 and 2 standard deviations, respectively, above untreated control wells) | 1.1 | 88 | 
c1ccc(CNc2ncnc3[nH]cnc23)cc1 [Aminopurine, 6-benzyl] | W (Medium and weak hits were defined as compounds giving a cell fluorescence signal that was between 2 and 3 or 1 and 2 standard deviations, respectively, above untreated control wells) | 1.6 |  | % YFP quench (F508del CFTR): 89%
O=C(O)[C@H](O)[C@@H](O)[C@H](O[C@@H]1O[C@H](CO)[C@H](O)[C@H](O)[C@H]1O)[C@H](O)CO [Lactoblonic acid] | W (Medium and weak hits were defined as compounds giving a cell fluorescence signal that was between 2 and 3 or 1 and 2 standard deviations, respectively, above untreated control wells) | 1.2 |  | % YFP quench (F508del CFTR): 78%
CCn1cc(C(=O)O)c(=O)c2cc(F)c(N3CCNCC3)nc21 [Enoxacin] | W (Medium and weak hits were defined as compounds giving a cell fluorescence signal that was between 2 and 3 or 1 and 2 standard deviations, respectively, above untreated control wells) | 1.0 | 84 | 
NC(=O)N/N=C/c1ccc([N+](=O)[O-])o1 [Nitrofural] |  |  | 94 | 
CN(C)CCOC(=O)COc1ccc(Cl)cc1.Cl [Meciofenoxate hydrochloride] | W (Medium and weak hits were defined as compounds giving a cell fluorescence signal that was between 2 and 3 or 1 and 2 standard deviations, respectively, above untreated control wells) | 1.1 |  | % YFP quench (F508del CFTR): 877%
O=c1c(-c2ccc(O)cc2)coc2cc(O)ccc12 [daidzein] |  |  |  | signal in the trafficking assay (ΔF508-CFTR; 24 hours): consistently elevated signal
CC(C)(C)NCC(O)c1ccc(O)c(CO)c1 (centres unmarked) [Salbutamol] | W (Medium and weak hits were defined as compounds giving a cell fluorescence signal that was between 2 and 3 or 1 and 2 standard deviations, respectively, above untreated control wells) | 1.0 | 97 | 
CCOC(=O)n1ccn(C)c1=S [Carbimazole] | W (Medium and weak hits were defined as compounds giving a cell fluorescence signal that was between 2 and 3 or 1 and 2 standard deviations, respectively, above untreated control wells) | 1.0 | 95 | 
c1ccc2c(c1)OCC(C1=NCCN1)O2 (centres unmarked) [Idazoxan hydrochloride] | W (Medium and weak hits were defined as compounds giving a cell fluorescence signal that was between 2 and 3 or 1 and 2 standard deviations, respectively, above untreated control wells) | 1.0 | 103 | 
CC[C@H]1OC(=O)[C@H](C)[C@@H](O[C@H]2C[C@@](C)(OC)[C@@H](O)[C@H](C)O2)[C@H](C)[C@@H](O[C@@H]2O[C@H](C)C[C@H](N(C)C)[C@H]2O)[C@](C)(O)C[C@@H](C)/C(=N\OCOCCOC)[C@H](C)[C@@H](O)[C@]1(C)O [Roxithromycin] | W (Medium and weak hits were defined as compounds giving a cell fluorescence signal that was between 2 and 3 or 1 and 2 standard deviations, respectively, above untreated control wells) | 1.2 | 100 | 
Cc1[nH]ccc2c1[nH]c1cc(=O)ccc12 [Harmol hydrochloride dihydrate] |  |  | 92 | 
O=C1N[C@@H]2[C@@H](O)[C@@H](O)[C@H](O)[C@@H](CO)N2C1=O [kifunesine] |  |  |  | increase in signal, suitability as positive control for the corrector assay screen (ΔF508-CFTR; kifunesine 100 μM, Sodium 4 Phenylbutyrate 1 mM, curcumin 40 μM, 24 hours): not sufficient to act as a positive control
CC1(C)[C@@H](O[C@H]2O[C@H](C(=O)O)[C@@H](O)[C@H](O)[C@H]2O[C@@H]2O[C@H](C(=O)O)[C@@H](O)[C@H](O)[C@H]2O)CC[C@]2(C)[C@H]3C(=O)C=C4[C@@H]5C[C@@](C)(C(=O)O)CC[C@]5(C)CC[C@@]4(C)[C@]3(C)CC[C@@H]12 [glycyrrhizic acid] |  |  |  | ΔF508-CFTR correctors identified by highthroughput screening: hit class (ΔF508-CFTR; 24 hours): strong hits
CC(=O)O[C@H]1C[C@@H](OC(C)=O)C(C)(C)[C@@H]2C[C@@H](OC(C)=O)[C@]3(C)[C@H](CC[C@@]4(C)[C@H](c5ccoc5)OC(=O)[C@H]5O[C@@]534)[C@@]12C [khivorin] |  |  |  | signal in the trafficking assay (ΔF508-CFTR; 24 hours): consistently elevated signal
O=C(N[C@H](CO)[C@H](O)c1ccc([N+](=O)[O-])cc1)C(Cl)Cl [chloramphenicol] |  |  |  | ΔF508-CFTR correctors identified by highthroughput screening: hit class (ΔF508-CFTR; 24 hours): strong hits
N.N.O=C([O-])C1(C(=O)[O-])CCC1.[Pt+2] [carboplatin] |  |  |  | ΔF508-CFTR correctors identified by highthroughput screening: hit class (ΔF508-CFTR; 24 hours): strong hits
C[C@]12CCC3C(CC[C@H]4C[C@@H](Cl)CC[C@]34C)C1CCC2=O (stereo partly drawn) [3-beta chloroandrostanone] |  |  |  | signal in the trafficking assay (ΔF508-CFTR; 24 hours): consistently elevated signal
CN(Cc1cc(Br)cc(Br)c1N)C1CCCCC1 [bromhexine] |  |  |  | signal in the trafficking assay (ΔF508-CFTR; 24 hours): consistently elevated signal
C[C@]12CC[C@H](O)CC1=CC[C@@H]1[C@@H]2CC[C@]2(C)C(=O)CC[C@@H]12 [dyhydroepiandrosterone] |  |  |  | signal in the trafficking assay (ΔF508-CFTR; 24 hours): consistently elevated signal
didectylkhivorin |  |  |  | signal in the trafficking assay (ΔF508-CFTR; 24 hours): consistently elevated signal
COC(=O)c1c(Cl)c(Cl)c(C(=O)OC)c(Cl)c1Cl [dacthal] |  |  |  | ΔF508-CFTR correctors identified by highthroughput screening: hit class (ΔF508-CFTR; 24 hours): strong hits
1-deacetoxy-1-oxo-3,7 dideactyl khivorin |  |  |  | signal in the trafficking assay (ΔF508-CFTR; 24 hours): consistently elevated signal
